Active and inactive are the calls of the source. The rule behind the calls is not given here.
Assays:
[1] = target: T1, Cannabinoid receptor (Mus musculus) (UniProt P47746+P47936); assay: Agonist activity at cannabinoid receptor in ICR mouse vas deferens assessed as inhibition of electrically induced contractions at 10^-7 M after 10 mins relative to control; format: protein assay
[2] = target: T1, Cannabinoid receptor (Mus musculus); assay: Agonist activity at cannabinoid receptor in ICR mouse vas deferens assessed as inhibition of electrically induced contractions at 3 x 10^-7 M after 10 mins relative to control; format: protein assay
[3] = target: T1, Cannabinoid receptor (Mus musculus); assay: Agonist activity at cannabinoid receptor in ICR mouse vas deferens assessed as inhibition of electrically induced contractions at 9 x 10^-7 M after 10 mins relative to control; format: protein assay
[4] = target: T1, Cannabinoid receptor (Mus musculus); assay: Agonist activity at cannabinoid receptor in ICR mouse vas deferens assessed as inhibition of electrically induced contractions at 2.7 x 10^-6 M after 10 mins relative to control; format: protein assay
[5] = target: T1, Cannabinoid receptor (Mus musculus); assay: Agonist activity at cannabinoid receptor in ICR mouse vas deferens assessed as inhibition of electrically induced contractions at 8.1 x 10^-6 M after 10 mins relative to control; format: protein assay
[6] = target: T1, Cannabinoid receptor (Mus musculus); assay: Agonist activity at cannabinoid receptor in ICR mouse vas deferens assessed as inhibition of electrically induced contractions at 1.82 x 10^-5 M after 10 mins relative to control; format: protein assay
[7] = target: T1, Cannabinoid receptor (Mus musculus); assay: Agonist activity at cannabinoid receptor in ICR mouse vas deferens assessed as inhibition of electrically induced contractions at 10^-7 M after 10 mins in presence of CB1 antagonist AM251 relative to control; format: protein assay
[8] = target: T1, Cannabinoid receptor (Mus musculus); assay: Agonist activity at cannabinoid receptor in ICR mouse vas deferens assessed as inhibition of electrically induced contractions at 3 x 10^-7 M after 10 mins in presence of CB1 antagonist AM251 relative to control; format: protein assay
[9] = target: T1, Cannabinoid receptor (Mus musculus); assay: Agonist activity at cannabinoid receptor in ICR mouse vas deferens assessed as inhibition of electrically induced contractions at 9 x 10^-7 M after 10 mins in presence of CB1 antagonist AM251 relative to control; format: protein assay
[10] = target: T1, Cannabinoid receptor (Mus musculus); assay: Agonist activity at cannabinoid receptor in ICR mouse vas deferens assessed as inhibition of electrically induced contractions at 2.7 x 10^-6 M after 10 mins in presence of CB1 antagonist AM251 relative to control; format: protein assay
[11] = target: T1, Cannabinoid receptor (Mus musculus); assay: Agonist activity at cannabinoid receptor in ICR mouse vas deferens assessed as inhibition of electrically induced contractions at 8.1 x 10^-6 M after 10 mins in presence of CB1 antagonist AM251 relative to control; format: protein assay
[12] = target: T1, Cannabinoid receptor (Mus musculus); assay: Agonist activity at cannabinoid receptor in ICR mouse vas deferens assessed as inhibition of electrically induced contractions at 1.82 x 10^-5 M after 10 mins in presence of CB1 antagonist AM251 relative to control; format: protein assay
[13] = target: T1, Cannabinoid receptor (Mus musculus); assay: Agonist activity at cannabinoid receptor in ICR mouse vas deferens assessed as inhibition of electrically induced contractions at 10^-7 M after 10 mins in presence of CB2 antagonist AM630 relative to control; format: protein assay
[14] = target: T1, Cannabinoid receptor (Mus musculus); assay: Agonist activity at cannabinoid receptor in ICR mouse vas deferens assessed as inhibition of electrically induced contractions at 3 x 10^-7 M after 10 mins in presence of CB2 antagonist AM630 relative to control; format: protein assay
[15] = target: T1, Cannabinoid receptor (Mus musculus); assay: Agonist activity at cannabinoid receptor in ICR mouse vas deferens assessed as inhibition of electrically induced contractions at 9 x 10^-7 M after 10 mins in presence of CB2 antagonist AM630 relative to control; format: protein assay
[16] = target: T1, Cannabinoid receptor (Mus musculus); assay: Agonist activity at cannabinoid receptor in ICR mouse vas deferens assessed as inhibition of electrically induced contractions at 2.7 x 10^-6 M after 10 mins in presence of CB2 antagonist AM630 relative to control; format: protein assay
[17] = target: T1, Cannabinoid receptor (Mus musculus); assay: Agonist activity at cannabinoid receptor in ICR mouse vas deferens assessed as inhibition of electrically induced contractions at 8.1 x 10^-6 M after 10 mins in presence of CB2 antagonist AM630 relative to control; format: protein assay
[18] = target: T1, Cannabinoid receptor (Mus musculus); assay: Agonist activity at cannabinoid receptor in ICR mouse vas deferens assessed as inhibition of electrically induced contractions at 1.82 x 10^-5 M after 10 mins in presence of CB2 antagonist AM630 relative to control; format: protein assay
Acetylcholinesterase [19] = target: T2, Acetylcholinesterase (Homo sapiens, UniProt P22303); assay: Inhibition of human erythrocyte AChE using acetylthiocholine as substrate by Ellman's assay
Cholinesterase [20] = target: T3, Cholinesterase (Homo sapiens, UniProt P06276); assay: Inhibition of human serum BChE using butyrylthiocholine as substrate by Ellman's assay
[21] = target: Beta-secretase 1 (Homo sapiens) (UniProt P56817); assay: Inhibition of human BACE1 at 10 uM incubated for 60 mins using rhodamine-EVNLDAEFK-quencher substrate by FRET assay
[22] = Antioxidant activity assessed as trolox equivalent of APPH-induced radical scavenging activity by ORAC-FL assay; format: functional
SH-SY5Y [23] = assay: Neuroprotective activity against amyloid beta-induced neurodegeneration in human SH-SY5Y cells at 20 uM preincubated for 1 hr followed by amyloid beta addition and measured after 24 hrs by MTT assay; format: functional, cell-based
SH-SY5Y [24] = assay: Neuroprotective activity against amyloid beta-induced neurodegeneration in human SH-SY5Y cells at 20 uM preincubated for 1 hr followed by amyloid beta addition and measured after 24 hrs in presence of CB2 antagonist AM630 by MTT assay; format: functional, cell-based
Homo sapiens [25] = organism: Homo sapiens; assay: Antiproliferative activity against Alzheimer's patient derived lymphoblast cells at 5 uM after 72 hrs by MTT assay; format: functional
Homo sapiens [26] = organism: Homo sapiens; assay: Antiproliferative activity against Alzheimer's patient derived lymphoblast cells at 5 uM in presence of CB2 antagonist AM630 after 72 hrs by MTT assay; format: functional
[27] = Antiproliferative activity against normal human derived lymphoblast cells at 5 uM after 72 hrs by MTT assay
Acetylcholinesterase [28] = target: T2, Acetylcholinesterase; assay: Inhibition of human erythrocyte AChE at 10 uM using acetylthiocholine as substrate by Ellman's assay
SH-SY5Y [29] = assay: Toxicity in human SH-SY5Y cells at 20 uM after 24 hrs by MTT assay; format: cell-based
Cholinesterase [30] = target: T3, Cholinesterase; assay: Inhibition of human serum BChE at 10 uM using butyrylthiocholine as substrate by Ellman's assay

T1 sequence (P47746 whole entry, looked up): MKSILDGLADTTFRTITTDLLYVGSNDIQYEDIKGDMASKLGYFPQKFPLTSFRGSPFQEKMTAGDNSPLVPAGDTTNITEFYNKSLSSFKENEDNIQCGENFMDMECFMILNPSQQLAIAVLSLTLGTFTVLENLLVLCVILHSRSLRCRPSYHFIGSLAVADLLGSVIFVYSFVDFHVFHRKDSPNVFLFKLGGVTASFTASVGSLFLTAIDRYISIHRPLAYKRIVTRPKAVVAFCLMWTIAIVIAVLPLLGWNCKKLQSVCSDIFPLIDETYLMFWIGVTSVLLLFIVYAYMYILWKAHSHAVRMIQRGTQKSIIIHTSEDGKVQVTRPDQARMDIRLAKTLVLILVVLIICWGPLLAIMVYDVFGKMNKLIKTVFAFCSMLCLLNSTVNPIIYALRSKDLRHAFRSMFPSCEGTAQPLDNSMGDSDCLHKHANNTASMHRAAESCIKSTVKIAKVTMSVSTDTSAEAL
T1 sequence (P47936 whole entry, looked up): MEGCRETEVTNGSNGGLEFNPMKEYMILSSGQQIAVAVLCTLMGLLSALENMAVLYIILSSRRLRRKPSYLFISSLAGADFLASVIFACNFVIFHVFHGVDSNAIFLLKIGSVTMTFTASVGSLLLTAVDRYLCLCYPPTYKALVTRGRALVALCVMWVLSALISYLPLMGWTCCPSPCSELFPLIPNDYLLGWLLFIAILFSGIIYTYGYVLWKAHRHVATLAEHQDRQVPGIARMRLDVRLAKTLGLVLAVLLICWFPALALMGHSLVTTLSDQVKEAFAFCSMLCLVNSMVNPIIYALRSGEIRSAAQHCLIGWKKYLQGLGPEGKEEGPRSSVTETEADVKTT
Beta-secretase 1 (Homo sapiens), sequence (P56817 whole entry): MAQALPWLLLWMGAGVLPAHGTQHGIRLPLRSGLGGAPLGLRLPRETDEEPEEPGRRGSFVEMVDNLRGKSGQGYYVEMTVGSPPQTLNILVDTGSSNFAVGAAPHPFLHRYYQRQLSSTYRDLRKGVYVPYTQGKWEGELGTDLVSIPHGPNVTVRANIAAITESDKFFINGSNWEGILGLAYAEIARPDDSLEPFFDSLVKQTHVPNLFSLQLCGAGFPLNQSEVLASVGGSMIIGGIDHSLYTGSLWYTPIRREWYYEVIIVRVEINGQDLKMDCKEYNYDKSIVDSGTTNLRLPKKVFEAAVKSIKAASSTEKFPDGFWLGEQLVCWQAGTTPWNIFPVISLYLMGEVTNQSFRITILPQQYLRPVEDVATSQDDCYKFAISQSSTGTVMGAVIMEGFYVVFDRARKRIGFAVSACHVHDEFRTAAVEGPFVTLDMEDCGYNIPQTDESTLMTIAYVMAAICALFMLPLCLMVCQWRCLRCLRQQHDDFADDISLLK
T3 sequence (P06276 whole entry): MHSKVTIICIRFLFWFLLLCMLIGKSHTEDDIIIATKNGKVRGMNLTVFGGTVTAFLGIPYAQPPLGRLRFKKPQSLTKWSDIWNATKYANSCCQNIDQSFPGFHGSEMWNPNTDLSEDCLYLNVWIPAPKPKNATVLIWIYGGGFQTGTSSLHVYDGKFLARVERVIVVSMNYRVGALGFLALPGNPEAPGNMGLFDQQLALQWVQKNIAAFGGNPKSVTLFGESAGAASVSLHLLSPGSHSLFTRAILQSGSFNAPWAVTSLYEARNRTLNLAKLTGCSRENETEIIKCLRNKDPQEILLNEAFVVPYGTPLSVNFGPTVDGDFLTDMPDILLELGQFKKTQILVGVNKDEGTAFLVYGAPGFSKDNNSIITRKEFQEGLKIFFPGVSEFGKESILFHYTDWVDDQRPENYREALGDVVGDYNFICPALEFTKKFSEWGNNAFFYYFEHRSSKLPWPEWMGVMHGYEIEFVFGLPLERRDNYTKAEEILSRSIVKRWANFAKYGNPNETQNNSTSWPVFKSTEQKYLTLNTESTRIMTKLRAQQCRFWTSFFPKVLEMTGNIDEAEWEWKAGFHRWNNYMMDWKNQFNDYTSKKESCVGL
T2 sequence (P22303 whole entry): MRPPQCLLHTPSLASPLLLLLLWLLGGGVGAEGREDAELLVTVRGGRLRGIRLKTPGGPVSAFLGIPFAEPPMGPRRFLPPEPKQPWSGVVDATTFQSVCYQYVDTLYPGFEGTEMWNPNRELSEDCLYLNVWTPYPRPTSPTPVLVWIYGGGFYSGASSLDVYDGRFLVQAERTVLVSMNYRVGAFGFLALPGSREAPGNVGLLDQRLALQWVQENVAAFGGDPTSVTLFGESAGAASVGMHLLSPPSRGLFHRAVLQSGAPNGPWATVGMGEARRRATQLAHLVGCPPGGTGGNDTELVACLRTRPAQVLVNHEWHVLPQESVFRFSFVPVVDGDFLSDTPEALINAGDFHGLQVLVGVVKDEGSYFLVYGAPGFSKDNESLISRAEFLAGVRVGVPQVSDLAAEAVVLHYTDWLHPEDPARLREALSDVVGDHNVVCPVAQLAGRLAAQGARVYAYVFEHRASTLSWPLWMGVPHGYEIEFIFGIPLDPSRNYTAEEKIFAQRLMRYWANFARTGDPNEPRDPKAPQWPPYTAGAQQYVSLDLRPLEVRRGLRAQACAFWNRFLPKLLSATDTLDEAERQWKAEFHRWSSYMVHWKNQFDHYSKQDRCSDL

Row | SMILES | inhibition [1] | inhibition [2] | inhibition [3] | inhibition [4] | inhibition [5] | inhibition [6] | inhibition [7] | inhibition [8] | inhibition [9] | inhibition [10] | inhibition [11] | inhibition [12] | inhibition [13] | inhibition [14] | inhibition [15] | inhibition [16] | inhibition [17] | inhibition [18] | IC50 (Acetylcholinesterase [19]) | IC50 (Cholinesterase [20]) | other results
1 | O=C(c1ccccc1Cl)n1nc(OCCN2CCCC2)c2ccccc21 | 1.5% | 4.9% | 10.8% | 15.1% | 45.9% | 75.4% | -2.8% | -2.8% | -1.2% | -2.2% | -2.6% | 21.1% | -2.5% | 0.3% | 3.5% | 8.8% | 15.8% | 29.3% | 9.7 µM | 1.3 µM | inhibition [21]: 9%; Activity [22]: inactive; Activity (SH-SY5Y [23]): Active; Activity (SH-SY5Y [24]): inactive; Activity (Homo sapiens [25]): Active; Activity (Homo sapiens [26]): inactive; Activity [27]: Non-Toxic
2 | O=C(c1cccc(Cl)c1F)n1nc(OCCCN2CCCCC2)c2ccccc21 | 9.6% | 13.9% | 18.7% | 24.9% | 54.7% | 80.5% | -7.1% | -5.3% | 4.3% | 12.9% | 54.9% | 76.1% | -1.5% | 1.7% | -3.8% | -2.8% | 12.9% | 58.3% | > 10 µM | 0.8 µM | inhibition [21]: 34%; Activity [22]: inactive; Activity (Homo sapiens [25]): Active; Activity (Homo sapiens [26]): inactive; inhibition (Acetylcholinesterase [28]): 48%; Activity (SH-SY5Y [29]): Toxic; Activity [27]: Non-Toxic
3 | O=C(Cc1ccc(Cl)cc1)n1nc(OCCCN2CCCCC2)c2ccccc21 | -4.5% | -4.8% | 0.4% | 7.3% | 67.4% | 94.2% | -5.5% | -6.2% | -2.2% | 12.4% | 61.8% | 83.5% | -7.8% | -3.2% | 2.4% | 19.7% | 86.6% | 96.1% | > 10 µM | > 10 µM | inhibition [21]: 50%; Activity [22]: inactive; inhibition (Acetylcholinesterase [28]): 43%; inhibition (Cholinesterase [30]): 46%
4 | CCCC(C)(C)c1ccc2c(c1)OC(C)(C)[C@@H]1CC=C(C)C[C@@H]21 |  |  |  |  |  |  |  |  |  |  |  |  |  |  |  |  |  |  |  |  | Activity (Homo sapiens [25]): Active; Activity [27]: Non-Toxic
5 | O=C(c1cccc(Cl)c1Cl)n1nc(OCCCN2CCCCC2)c2ccccc21 | 1.4% | 6.2% | 14.3% | 27.4% | 89.3% | 96.6% | -0.7% | 2% | 8.7% | 15.2% | 65.3% | 89.8% | -3% | 0% | 10.4% | 18.2% | 62.7% | 85.5% | 17 µM | 0.08 µM | inhibition [21]: 45.1%; Activity [22]: inactive; Activity (Homo sapiens [25]): Active; Activity (Homo sapiens [26]): inactive; Activity (SH-SY5Y [29]): Toxic; Activity [27]: Non-Toxic

From ChEMBL document CHEMBL4400519, “Indazolylketones as new multitarget cannabinoid drugs” (Eur J Med Chem, 2019)
